# Values quoted from earlier work, collected in patent publication US5932596A, “Imidazoylalkyl substituted with a six membered nitrogen containing nitrogen containing heterocyclic ring” (Schering Corporation, priority 1995, dated 1999).
# System: H3 receptors
# Details: rat brain; Arrang et al.
smiles,measurement,value
NCCc1c[nH]cn1 [histamine],maximal inhibition of release,approximately 60%
